From patent US9271946B2, “Use of a RAR antagonist or inverse agonist for the treatment of chemotherapy and/or radiation therapy side effects” (IO Therapeutics, Inc., priority 2006, dated 2016)

Tests used:
RAR = experiment: transactivation assays; assay type: cell-based
Description: An assay that can be used to determine the agonist activity in the RARα, RARβ and RARγ receptor subtypes is described in Feigner, P. L., and Holm, M., FOCUS, 11:2, 21+ (1989) and U.S. Pat. Nos. 5,455,265 and 7,166,726, all of which are incorporated herein by reference in their entirety.

[1] = tested on: CPM-induced leukopenic mice; experiment: peripheral and systemic neutrophil recovery in CPM-induced leukopenic mice, spleen and bone marrow (Example 2); assay type: in vivo, mouse
Experimental: Leukopenia was induced in male BDF1 mice (C57Bl×DBA2, 7.5-12 weeks) by an intra-peritoneal (i.p.) injection of 200 mg/kg Cyclophosphamide (CPM, Sigma-Aldrich, Saint Louis, Mo.) in 0.2 ml saline. The effect of VTP 194310 on leukocyte recovery was evaluated by oral gavage of animals with 1 mg/kg of VTP 194310 as indicated in the results section. VTP 194310 (dissolved in DMSO) was diluted through peanut oil as the vehicle (dosed at 5 ml/kg). Control mice were given DMSO and vehicle alone. As a positive control, granulocytopoiesis was stimulated in CPM-treated mice by a single sub-cutaneous injection of 10 μg/kg pegylated recombinant methionyl human granulocyte colony-stimulating factor (PEG-r-metHuG-CSF) (Neulasta, Pegfilgrastim; Amgen, Thousand Oaks, Calif.) on day 2. Three separate experiments were performed.
Peripheral blood (60 μl) was collected under anaesthesia from the retroorbital sinus of the mice with heparinized capillary tubes and transferred to EDTA-coated microtainer tubes (Becton Dickinson, Franklin Lakes, N.J.). White cell, neutrophil, and lymphocyte counts were obtained for at least three mice per group by diluting the blood 1:4 with PBS containing 5% bovine serum albumin (Fraction V; Sigma, Saint Louis, Mo.), and by using an Advia 120 Hematology System (Bayer HealthCare Diagnostics Division, Tarrytown, N.Y.).
Immature (Gr-1^low/CD11b^+ve) and mature (Gr-1^+ve/CD11b^+ve) neutrophils were identified in single cells suspensions prepared from spleen and bone marrow (femur) aspirates by double immunostaining using PE- and FITC-conjugated monoclonal antibodies (Pharmingen, San Diego, Calif.). Cells were analysed on a FACS Calibur interfaced with CellQuest Pro software program (Becton Dickinson, San Jose, Calif.).
These mice were gavaged with VTP 194310 on days −1 to 2 in relation to CPM treatment.

[2] = tested on: S. aureus 29213 infection in leukopenic female BDF1 mice; experiment: protective effect against S. aureus infection in leukopenic mice (Example 3); assay type: in vivo, mouse
Experimental: S. aureus 29213 obtained from American Type Culture Collection (ATCC) (Rockville, Md.) was used to induce infections in leukopenic female BDF1 mice (20-22 g). S. aureus were cultured at 37° C. in Tryptic Soy broth until the mid-logarithmic phase of growth (optical density at 600 nm=0.3), harvested, and washed with PBS. The number of bacteria was enumerated by serial dilution with PBS, plating onto blood agar, and counting colony-forming units (CFU) 48 hours after incubation at 37° C. The suspension was adjusted to […].
Mice were rendered leukopenic by i.p. injection of CPM at 200 mg/kg. A lethal dose (LD) of S. aureus was determined by intravenous injections of 1×10^3 to 1×10^8 CFU to groups of 10 mice 4 days after CPM treatment. 10-day survivors were enumerated, and the LD95 of S. aureus was calculated by Probit analysis. Treatment with VTP 194310 (at 1 mg/kg) was started one day before CPM and continued for 3 more days. Four days after CPM, the animals were infected intravenously with 4.1 and 2.5×10^6 CFU of S. aureus in 200 μl of PBS. Surviving animals were recorded daily for 14 days after the challenge. […] All experiments were performed in compliance with relevant laws and institutional guidelines, and were approved by the Animal Care and Use Committee.

[3] = tested on: CPM-induced neutropenic male BDF1 mice; experiment: mono-therapy and combination therapy on neutrophil recovery in CPM-induced neutropenic mice (Example 4); assay type: in vivo, mouse
Experimental: VTP 194310 DMSO stock solution was made by weighing out VTP 194310 and dissolved in DMSO (25 mg/1.33 ml DMSO). This stock solution was then mixed with Vehicle (39.2 ml Corn Oil+0.8 ml DMSO).
The 3.0 mg/kg VTP194310 solution was made by mixing 39.2 ml Corn Oil+0.8 ml VTP 194310 DMSO Stock.
The 1.0 mg/kg VTP194310 solution was made by diluting the VTP194310 DMSO Stock 1:3 with DMSO (e.g. 1 ml DMSO+0.5 ml 4310 Stock), and then combining 39.2 ml Corn Oil+0.8 ml of the diluted VTP194310 Stock.
The 1 and 10 μg/kg PEG-G-CSF solutions were made by diluting 6 mg/ml stock with PBS.
Male BDF1 mice (C57Bl×DBA2), 7-8 weeks old, DOB: 1 Jun. 2006) were used in this experiment.
35 μl of blood (via the submandibular vein) were collected according to the scheduled time points or until the full recovery of blood cells and platelets. The blood samples were analyzed after 1:5 dilution with PBS saline containing 2% BSA (Fraction V) and 0.2 mM EDTA on the Hematology Analyzer Cell-DYN 3700 (Abbott Diagnostics).
Each group of mice were treated with vehicle, VTP 194310 at 3 mg/kg, PEG-G-CSF at 1 or 10 μg/kg, and CPM at 150 mg/kg. The mean numbers of total white blood cells (WBC), neutrophils, lymphocytes, red blood cells (RBC) and platelets and standard error (SE) for data obtained for each treated group are shown in FIG. 4. […] Combination treatment with VTP 194310 and PEG-G-CSF further increased recovery.

CCc1ccc(C2=CC(C)(C)Sc3ccc(C#Cc4ccc(C(=O)O)cc4)cc32)cc1 [VTP 194310, 4-[[4-(4-ethylphenyl)-2,2-dimethyl-(2H)-thiochromen-6-yl]-ethynyl]-benzoic acid]
activity in transactivation assays (RAR; agonist activity): no activity | gene transcriptional activity induced by ATRA and other RAR agonists (RAR; antagonism): blocks the gene transcriptional activity | absolute number of immature granulocytes (Gr-1low/CD11b+ve) in the spleen ([1]; day 7): 0.93±0.02 ×10^7 | absolute number of Gr-1+ve/CD11b+ve cells in the spleen ([1]; days 6 and 7): significantly increased | immature granulocytes (Gr-1low/CD11b+ve) in the spleen ([1]; days 6 and 7): elevated | neutrophil, and lymphocyte counts compared to control recovering mice ([1]; days 6 to 8, gavaged days −1 to 2): significantly elevated | spleen weight compared to controls ([1]; days 7 and 8, gavaged days −1 to 2): increased | Gr-1+ve/CD11b+ve cells in the bone marrow ([1]; gavaged days −1 to 2): increased prevalence | protective effect against S. aureus infection compared to controls ([2]; Logrank p=0.0031 (4.1×10^6 CFU), p<0.0001 (2.5×10^6 CFU)): very significant protective effect | mice alive ([2]; day 10, each of the doses of S. aureus (4.1 and 2.5×10^6 CFU), 1 mg/kg days −1 to 2): 83% | mice alive ([2]; day 14, 2.5×10^6 CFU S. aureus): 67% | mice alive ([2]; day 14, higher dose of bacteria (4.1×10^6 CFU)): 42% | effectiveness in enhancing neutrophil recovery compared to PEG-G-CSF at 10 μg/kg ([3]; CPM-induced mouse model): similarly effective | neutrophil recovery relative to control ([3]; monotherapy, CPM 150 mg/kg Day 0, VTP 194310 1 or 3 mg/kg/day oral Days −1 to 1, PEG-G-CSF 1 or 10 μg/kg s.c. Day 2): enhanced neutrophil recovery
